Experimental data taken from patent US11952431B2, “Neutrophil-binding peptides” (YISSUM RESEARCH DEVELOPMENT COMPANY OF THE HEBREW …, priority 2020, dated 2024).
“Also recorded” adds a separate entry of the source.

Experiments:
murine neutrophils = experiment: Phage-display screening of a peptide library on murine neutrophils; assay type: binding, mouse; conditions: prevalence in the final eluate, average of 5 replicates
Experimental: A phage-display screening of a peptide library was conducted, in a similar way to a screen conducted by Mazzucchelli et al. (Blood, 1999, 93(5), 1738-1748). In the present screen, a library of pages displaying 10^12 different peptides on their VIII protein was used to identify peptides that bind to murine neutrophils. The peptides in the library were random sequences of 6-12 amino acids in linear or cyclic form (Ryvkin et al., 2018, Nucleic Acids Research, 2018, Vol. 46, No. 9 e52). The screen was conducted using murine Normal-Density Neutrophils (NDN) for positive selection, whereas monocytes and lymphocytes served for negative selection. Following 3 rounds of positive panning and 2 interlaced rounds of negative panning, the neutrophil affinity selected phages were eluted and sequenced (FIG. 11). The top-ranking enriched peptide sequences and their prevalence in the final eluate (average of 5 replicates) are presented in Table 3.

neutrophils [1] = experiment: LQI tetramer alone or 16-LQI binding to WBCs, flow cytometry; set-up: species or system mouse; conditions: WBCs from 4T1-tumor bearing mice, 30 min at 4° C.
Experimental: (§1) After washing, the cells were stained with 50 μl 3.3 μg/ml of Streptavidin-Cy3 (SA-Cy3).
(§2) “Tetramer-Streptavidin Complex”:1 μl of the 309 μM stock solution of the tetrameric peptide was preincubated with 300 μl of 3.3 μg/ml SA-Cy3 for 30 min at RT. 100 μl of LQI tetramer-SA-Cy3 mix was then used to stain 0.5×10^6 cells.
(§3) The cells were washed and analyzed by flow cytometry.

other WBC = experiment: as above; set-up: species or system mouse; conditions: WBCs from 4T1-tumor bearing mice, 30 min at 4° C.
Experimental: as §1, §2, §3

[2] = test system: murine neutrophils (HDNs from 4T1-tumor bearing mice); experiment: Titration of binding to purified HDNs, flow cytometry; set-up: species or system mouse
Experimental: Analysis was performed by flow cytometry.

neutrophils [3] = experiment: Doublet analysis of flow cytometry data for crosslinking of neutrophils; assay type: cell-based, mouse
Experimental: In order to rule out that there is a crosslinking between neutrophils when incubating with the LQI tetramer-SA-complex, flow cytometry data was analyzed to assess if there was an increase in doublet cells after incubation with the LQI tetramer-SA-complex. It is possible to examine the light scatter plots and compare the height signal of a voltage pulse (SSC-H, FSC-H) to the area values (SSC-A, FSC-A; A=Height*Width). If a doublet passes the laser beam in the flow cytometer, the width of the pulse signal (corresponds to time) will increase and therefore the value for the area (SSC-A and FSC-A) will increase. By comparing e.g. SSC-H and SSC-A it is possible to identify doublets because they are outliers in the blot.

circulating neutrophils = experiment: Ex vivo binding to circulating neutrophils of healthy and tumor bearing mice; set-up: species or system mouse
Experimental: 0.5×10^6 purified HDNs were stained in 100 μl of preincubated 3.3 μg/ml 16-LQI-Cy3 solution for 30 min at 4° C. […] After staining, cells were washed and analyzed by flow cytometry.

neutrophils [4] = experiment: Confocal imaging of 16-LQI with Gr-1 neutrophils; assay type: cell-based, mouse
Experimental: FIGS. 2A-I: (2A) Schematic representation of the structure of a tetrameric LQI. […] (2E) Representative histogram showing the percent binding of 16-LQI to each WBC population in healthy Balb/C mice following ex vivo incubation and staining with Streptavidin-Cy3, as analyzed by flow cytometry. *=gating based on light scatter. […] Ly6G^+ population represent HDN and Ly6G− cells are other WBCs. […] (2I) Representative image of confocal microscopy with Gr-1 neutrophils (green) bound by the 16-LQI (red).

[5] = test system: circulating CD177+ cells (neutrophils); experiment: Flow cytometry of WBC stained for CD177 and 16-LQI; assay type: binding, mouse
From the text: (§4) (21C-D) Representative dot plots of isolated WBC stained with (21C) Ly6G and CD177 or (21D) CD177 and 16-LQI. […] (21F) Representative STORM imaging of a single neutrophil with staining of CD177 (green) and 16-LQI (red), overlay with brightfield (left) or DAPI staining of nucleus (right). (21G) Quantification of CD177 and 16-LQI interaction for image depicted in (E) using the ImageJ Interaction Factor plugin.

CD177 [6] = target: T1, CD177 (Mus musculus, UniProt Q8R2S8); experiment: STORM imaging of CD177 and 16-LQI on a neutrophil; assay type: binding; set-up: endogenous in cells; host or cells: murine neutrophils
T1 sequence (Q8R2S8 22-817): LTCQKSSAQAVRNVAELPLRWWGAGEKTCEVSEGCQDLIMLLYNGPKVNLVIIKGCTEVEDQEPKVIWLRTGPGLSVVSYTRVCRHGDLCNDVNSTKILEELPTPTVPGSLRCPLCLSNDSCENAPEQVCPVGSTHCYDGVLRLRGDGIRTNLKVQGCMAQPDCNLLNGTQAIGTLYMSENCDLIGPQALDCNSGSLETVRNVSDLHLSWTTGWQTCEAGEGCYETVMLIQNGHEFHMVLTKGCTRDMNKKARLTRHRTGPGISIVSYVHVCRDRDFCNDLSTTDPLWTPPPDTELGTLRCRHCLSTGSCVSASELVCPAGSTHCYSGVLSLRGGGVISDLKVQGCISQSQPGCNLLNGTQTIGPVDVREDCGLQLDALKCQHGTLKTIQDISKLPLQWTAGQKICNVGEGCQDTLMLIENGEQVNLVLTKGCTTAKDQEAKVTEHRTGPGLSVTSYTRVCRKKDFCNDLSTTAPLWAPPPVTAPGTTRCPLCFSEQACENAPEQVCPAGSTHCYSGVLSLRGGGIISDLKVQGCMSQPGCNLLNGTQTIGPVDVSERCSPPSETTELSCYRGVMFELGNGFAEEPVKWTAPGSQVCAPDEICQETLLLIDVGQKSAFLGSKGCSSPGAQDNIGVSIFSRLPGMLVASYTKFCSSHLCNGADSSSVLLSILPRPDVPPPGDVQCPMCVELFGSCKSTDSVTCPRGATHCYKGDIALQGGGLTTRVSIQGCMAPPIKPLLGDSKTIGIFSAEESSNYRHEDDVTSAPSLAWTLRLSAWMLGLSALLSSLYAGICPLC
From the text: as §4

[7] = test system: tumor-associated neutrophils (TANs); conditions: TANs from 4T1 tumors, 30 min at 4° C.
From the text: After staining, cells were washed and analyzed by flow cytometry.

[8] = test system: neutrophils (HDNs) from 4T1 tumor bearing Balb/C mice
Experimental: 800 μl of 2% FCS/RPMI medium were placed into the 24-well plate, then Millicell® cell culture inserts with a pore size of […] were placed into the wells and allowed to soak for 5 min. HDNs were suspended to a density of 250,000 cells/ml in 2% FCS/RPMI and 200 μl of the cell suspension were placed into the upper chamber of the transwell insert. Migration was stimulated by addition of […] CXCL2 to the bottom chamber of the wells (consider V=800 μl), and peptide was added to HDN in the upper chamber in two different concentrations (3.09 μM or 309 nM considering […]). Assay was stopped after 1.5 hr and inserts were removed with a forceps. Each condition was tested in triplicate. 5 pictures were taken per well at the same coordinates (middle, top, bottom, left, right). Cells per field of view were counted using ImageJ.
The purified HDNs were placed in the upper chamber of a transwell (pore size 5 μm) in 2% FCS/RPMI medium. The lower chamber contained either only 2% FCS/RPMI medium or the chemokine CXCL2 to induce neutrophil migration. […] The assay was stopped after 1.5 h incubation, five pictures of each well were taken, counted and averaged. The experiment was done in triplicates.

[9] = test system: 4T1 cancer cells co-cultured with HDNs
Experimental: In vitro luciferase assay to monitor the anti-tumor activity of isolated neutrophils (‘Killing Assay’): 5,000 luciferase-labeled 4T1 breast carcinoma cells were seeded in 100 μl OptiMem medium containing 2% heat-inactivated FCS in each well of a white 96-flat-bottom well plate. 24 hours after seeding the tumor cells, 1×10^5 HDNs purified from the circulation of 4T1-tumor-bearing mice were added in 50 μl OptiMem with 2% FCS. The co-culture was incubated overnight. Control wells were incubated in 50 μl medium without neutrophils. Multiple repeats (12 wells) were done of each experimental setting. The supernatant was aspirated and 50 μl of cell culture lysis buffer were added (Promega). The plate was incubated for 15 min on an orbital shaker and then read in the plate-reader. Well-wise 50 μl of in-house prepared luciferase assay solution was injected during the measurement, and chemiluminescence was read for 10 sec per well. % tumor lysis was calculated by the following formula: % tumor lysis=(1−[luminescence of samples with neutrophils]/[luminescence of samples in medium])×100%.
In more details, 5.000 luciferase-labeled 4T1 breast carcinoma cells were cultured for 18 hours. […] The next day, luciferin dependent chemiluminescence was measured and the percentage of killing was calculated compared to control wells that were not cultured with HDNs. […]

CD177 [10] = target: T1, CD177; conditions: neutrophil lysate 3 h, mass spectrometry
Experimental: After washing, the bound proteins were eluted by incubating the beads for 10 min at 95° C. in protein sample buffer containing beta-mercaptoethanol. The gel was stained using silver staining. Lanes of the eluates of peptide- and control-beads were cut out and analyzed by mass spectrometry.

[11] = test system: PMA stimulated ROS production in neutrophils; experiment: PMA induced ROS production after pretreatment with DPI or loaded nanoparticles; assay type: cell-based; conditions: pretreated 3 hrs with 10 ul NP or 1 uM free DPI, then 50 nM PMA
Experimental: PLGA NPs are known to gradually degrade within the cell, releasing any encapsulated payload. Therefore, whether neutrophil degranulation ROS production could be modulated by encapsulating small molecule inhibitors within neutrophil specific NPs (NSNPs) was tested. […] DPI was loaded in the LQI-coated nanoparticles using a single emulsion encapsulation process. Then, neutrophils were pretreated for 3 hrs with 10 ul empty NP (Empty NP), 10 ul DPI-loaded NP (NP+DPI) or 1 uM free DPI. After one wash, neutrophils were stimulated with 50 nM PMA to induce ROS production. Positive control for PMA induction were neutrophils pretreated with vehicle (empty NP). Negative control (Cont.) were untreated neutrophils.

monocytes or lymphocytes = experiment: Binding of peptide-presenting phage to WBC of 4T1 tumor bearing mice (anti-M13 PE, flow cytometry); set-up: species or system mouse; conditions: phage presenting the peptide
Experimental: (§5) FIGS. 1A-D: Validation of Phage Binding of Highest-Ranking Peptides Sequences Selected on Mouse Neutrophils. […] (SEQ ID NO: 9) peptide to neutrophils (Ly6G+CD11b+, red histogram) and other WBC (Ly6G−CD11b−, blue histogram) was evaluated using anti-M13 PE-labelled antibody and (1A) flow cytometry analysis or (1B) microscopy. (1C) Overview of LQI peptide constructs—the LQI peptide sequence on the phage is inserted within the protein VIII coat protein of the phage (LQI peptide in orange) and neighboring amino acid residues are depicted (recombinant LQI pVIII). An unlabeled, Cy5-labeled, biotin-labeled and the LQI peptide construct including neighboring amino acids from coat protein VIII as well as a glycine linker and fluorescein, were generated and tested for binding. (1D) Competition assay of LQI phage binding and LQI peptide constructs. Neutrophils were incubated with the LQI-presenting phage (black line) alone or with the LQI-presenting phage and different LQI peptide constructs at the same time (blue line). Phage binding to neutrophils was quantified using anti-M13-PE antibody (only M13-PE=dotted line).
(§6) The peptide having the best binding obtained in the screening was the peptide LQI, consisting of the amino acid sequence […] (SEQ ID NO: 9).

[12] = test system: neutrophils (Ly6G+CD11b+); experiment: as above; set-up: species or system mouse; conditions: phage presenting the peptide
Experimental: as §5, §6

[13] = test system: murine neutrophils (HDNs from 4T1 tumor bearing Balb/C mice); experiment: Competition assay of LQI phage binding with synthetic LQI peptide constructs; set-up: species or system mouse; conditions: peptide 20 min, then 10^10 LQI phages; M13-PE flow cytometry
Experimental: Several LQI monomeric peptide conjugates were synthesized by tagging the N-terminus of LQI peptide with Cy5, biotin or fluorescein (FIG. 1C). Competition assays were then performed in order to evaluate the binding of LQI and its conjugates to murine neutrophils. For the competition assays, 1×10^6 density-gradient purified HDNs from 4T1 tumor bearing Balb/C mice were incubated first with each of the synthetic peptides for 20 min, and later incubated with 10^10 phages presenting the LQI peptide on their surface. Phage binding was detected by flow cytometry with a M13-PE antibody.

murine CD177 = target: T2, murine CD177 (Mus musculus, UniProt Q8R2S8); experiment: Binding to HEK293T cells ectopically expressing CD177; conditions: control versus CD177-overexpressing cells
T2 construct: expressed in transfected cells; host or cells: HEK293T
T2 sequence (Q8R2S8 22-817): T1 sequence (Q8R2S8 22-817)

STMTILGTGS
Prevalence (%) (murine neutrophils): 10.4%

LSIVSGSALNHL
Prevalence (%) (murine neutrophils): 2.9%

16-LQI: LQI tetramer-streptavidin (SA) complex, a 16-mer of the LQI-peptide [Peptide 16-LQI]
binding of neutrophils (neutrophils [1]): 100%
binding to other WBC (other WBC): ~10%
affinity for neutrophils relative to LQI-tetramer alone [2]: more than 75 times
percentage of doublets versus cells stained with only SA-Cy3 (neutrophils [3]): Differences were not detected
specificity to circulating neutrophils (Ly6G+ cells) (circulating neutrophils; mice bearing 4T1 tumors): strong specificity
binding to circulating neutrophils (circulating neutrophils; neutrophils isolated from healthy mice, ex vivo): 87%
uptake seen by confocal imaging (neutrophils [4]): engulfed specifically by neutrophils
binding to circulating CD177+ cells [5]: all circulating CD177+ cells (neutrophils) bind
clusters in which CD177 and 16-LQI signals overlap (CD177 [6]): > 90%

TETSLRIVSTNP
Prevalence (%) (murine neutrophils): 4.1%

(LQIQSWSSSP (SEQ ID NO: 9) Doa-Doa-C)4-(Mpa)-4-Lys2-Lys-beta-Ala-Lys(Biotin)-beta-Ala-OH [LQI tetramer]
binding of neutrophils (neutrophils [1]): ~100%
binding to other WBC (other WBC): ~50%
Kd ([2]; purified HDNs, flow cytometry): 3.3 µM
binding to the different types of neutrophils (circulating neutrophils; summary FIG. 2H): very high efficiency
binding efficiency to TANs [7]: 98%
effect on neutrophil migration ([8]; 3.09 μM and 309 nM in upper chamber, CXCL2 in lower chamber, 1.5 h): no significant effect on neutrophil migration
chemoattractant activity ([8]; migration towards media containing LQI-tetramer): does not itself act as a chemoattractant
effect on the ability of HDNs to kill cancer cells [9]: does not affect the ability of HDNs to kill cancer cells
peptide/control ratio of CD177 in pulldown (CD177 [10]): 7.89

LTLVSERPMI
Prevalence (%) (murine neutrophils): 1.5%

c1ccc2c(c1)[I+]c1ccccc1-2 [DPI, diphenyleneiodonium chloride]
effect on PMA stimulated ROS production [11]: efficiently blocked; also recorded: completely blocked ROS production

LQIQSWSSSP
Prevalence (%) (murine neutrophils): 28.4%
binding of phage to monocytes or lymphocytes (monocytes or lymphocytes): no detectable binding
binding of phage to neutrophils [12]: 95%
competition with LQI phage binding to neutrophils [13]: able to compete with the phage binding to neutrophils
binding to HEK293T cells (murine CD177): binds only to HEK293T cells ectopically expressing the murine CD177
